The source of these data is patent publication US20260347280A1, “DEUTERATED HINOKITIOL DERIVATIVES” (priority 2022, published 2026).

The nature of data set [1]: Liposome efflux assay (Fe3+ liposomal efflux, cell-free iron efflux). The data set is classed as biochemical. The note with it: for iron mobilization capacity / cell-free iron transport, effect of deuteration: deuterated vs protio compound, cell-free iron efflux, 37 °C, 40 min; for iron transport capability at higher concentrations: Fe3+ liposomal efflux, 50-150 μM, compared with hinokitiol or Tri-Methyl. The protocol:
After evaporation under a stream of nitrogen, films were placed under hi-vacuum for 18 hours to ensure quantitative solvent removal. […] LUVs were subjected to size exclusion chromatography, using a ~20 cm column of Sephadex® G-50 Medium resin that was hydrated in liposome outside buffer (600 mM sodium ascorbate, 50 mM MES/TRIS pH 7.0).
Determination of total phosphorous was performed utilizing the Bartlett Assay. Briefly, the LUV suspension was diluted 10-fold in liposome outside buffer, then 10 μL of this solution was placed in three 7 mL vials along with 10 μL of liposome outside buffer for background. […] The samples were then allowed to fully cool and diluted using 3.9 mL of Milli-Q water. […] of 2.5% w/v ammonium molybdate was then added, then the samples were vortexed, then […] of 10% w/v ascorbic acid was added. The samples were then re-vortexed, capped, and heated at 100 °C for seven minutes. The samples were allowed to fully cool then read at A820 and compared to a phosphorous standard curve to determine the total quantity of phosphorous.
16 mL of liposome suspension was created with the following components: […] of ferrozine solution (100× stock, 50 mM in liposome outside buffer), LUV suspension (to a final concentration of 1 mM phosphorous), and liposome outside buffer up to 16 mL. […] of liposome suspension was then added to a 96 well plate (NUM) using a multichannel pipettor. The plate was then placed in a plate reader and equilibrated at 37 °C for 5 minutes, then read for a baseline measurement. Following this equilibration, compound was added at the designated concentrations (40× stock in DMSO) using a multichannel pipettor, and the plate was then incubated at 37 °C for 40 min. Reads were taken every minute at A562 and the plate mixed at 220 rpm. Total iron efflux was determined via […]-iron complex signal. These experiments were performed in triplicate, with a minimum of two biological replicates.

Data set [2] is described as follows: Dynamic light scattering (aggregation). In kind it is physicochemical. The note with it: for aggregation tendency: aqueous media, in words. As for the experimental part:
Dynamic light scattering was performed on a Malvern Zetasizer Nano using disposable cuvettes. […] Compound at the specified concentration (from 1000× in DMSO), as well as equimolar FeCl3 (1000× in 0.1 M HCl) were added to this buffer. After addition, these compounds were vortexed for 30 sec, sonicated for one min, then further vortexed for 30 sec before a five-minute equilibration in the Zetasizer at 37 °C. All standard parameters were used, with each graph representing a minimum of thirty 10 second measurements. For count rate analysis, the raw count rate was utilized, accounting for any differences in attenuator position between samples.

For data set [3] the following is noted: compared with hinokitiol; cited from earlier work.
Data set [4] in a line: Complex formation with iron / crystallographic data. The data set is classed as physicochemical.
For data set [5] the following is noted: background; cited from earlier work.
In data set [6] the test system is mitoferrin 1 (MFRN1−) deficient cells and animals. The settings on record: cited from earlier work.
Data set [7] concerns ferroportin 1 (FPN1−) deficient cells and animals. The settings on record: cited from earlier work.
Data set [8] has as its system divalent metal transporter 1 (DMT1−) deficient cells and animals. The settings on record: cited from earlier work.
The subject of data set [9] is shDMT1-Caco-2 monolayer. Briefly: Iron transport in differentiated shDMT1(-Caco-2) monolayers. In kind it is cell-based. Background: Caco-2 monolayers are a common model of the intestinal barrier.

Entries after “also recorded” stand apart in the source; their conditions may differ.

Consider `CCCCc1cccc(=O)c(O)c1` [4 nBu, 2-hydroxy-4-butylcyclohepta-2,4,6-trien-1-one], for which the “concentration of compound at which noticeable transport ceases” value in [1] (liposome efflux assay, due to higher order aggregation) was 40 µM. For the same molecule, the aggregation tendency entry in data set [2] is recorded as “highly aggregating”.

Regarding `Cc1cc(C)c(O)c(=O)c(C)c1` [Tri-Methyl], the aggregation tendency result in data set [2] is listed as “aggregates less”.

`CC(C)c1ccc(O)c(=O)cc1` [GT]: the “iron mobilization capacity / cell-free iron transport, effect of deuteration” value in data set [1] is recorded as “no deuteration effect on cell-free iron transport”. For the same molecule, the “aggregation, previously shown” value in [3] is listed as “less aggregation”.

Take `[2H]C([2H])([2H])C([2H])([2H])C([2H])([2H])C([2H])([2H])c1cccc(=O)c(O)c1` [4 nBu-d9, 2-hydroxy-4-(butyl-d9)cyclohepta-2,4,6-trien-1-one]: the “iron mobilization capacity / cell-free iron transport, effect of deuteration” value is “maintains transport levels at concentrations when the parent compound suffers from limiting higher order aggregation” in [1] and “extends transport window” in data set [1] (listed as 4-n-buytl-(d9)-tropolone). Further, in data set [1] (liposome efflux assay, before dropping to baseline), the “concentration of compound up to which noticeable transmembrane transport of iron is demonstrated” value is 75 µM.

`CC(C)c1cccc(=O)c(O)c1` [hinokitiol]: the “iron transport capability at higher concentrations” value in data set [1] is on record as “begins to aggregate”. Also, the aggregation tendency result in [2] is given as “predisposed at higher concentrations to form higher-order aggregates; also recorded: formation of higher-order aggregates in aqueous media”; in data set [2] (listed as Hinokitiol) it was “highly aggregative”. For the same molecule, the “complex formation with Fe(III)” value in data set [4] is reported as “forms a 3:1 complex with Fe(III)”. Further, the “complex formation with iron” value in data set [5] is “reversibly forming a 3:1 complex with iron”. The “restoration of iron homeostasis” value in data set [6], in data set [7] and in data set [8] was “restores iron homeostasis” each time. Further, the “iron transport / mobilization” value in [9] is given as “effectively mobilizes iron at low-to-intermediate concentrations; also recorded: at higher concentrations, a substantial decrease in transmembrane mobilizing activity was observed”.

With `[2H]C([2H])([2H])C([2H])(c1cccc(=O)c(O)c1)C([2H])([2H])[2H]` [hinokitiol-d7, 2-hydroxy-4-(isopropyl-d7)-cyclohepta-2,4,6-trien-1-one], in [1], the “iron transport capability at higher concentrations” value is reported as “significantly greater iron transport capability at higher concentrations (50-150 μM) when compared to hinokitiol”. Also, in [2] (20-100 μM with equimolar iron, pH 7.0, 37 °C), the “aggregation by dynamic light scattering” value was “aggregates less via lesser photon deflection counts and particle size”.
